“And” between values parts separate entries of the source, which are not always exact repeats. Equal values may be shown once. Inconclusive results and toxic doses are left out.
System: L1210 leukemia ip in BDF1 mice, survival T/C
Experiment: NCI In Vivo Anticancer Drug Screen. Data for tumor model L1210 Leukemia (intraperitoneal) in B6D2F1 (BDF1) mice
Details: endpoint: mean survival time, higher = longer survival
Summary of the method: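 Tumor was transplanted into mice, which were then dosed with test compound or vehicle alone. Survival was recorded for each group, and the treated figure was expressed relative to the control figure.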

[1] = dose: 100.0 mg/kg/injection, schedule: Q04DX003 (ip), vehicle: Klucel (hydroxypropylcellulose) (HPC)
[2] = dose: 200.0 mg/kg/injection, schedule: Q04DX003 (ip), vehicle: Klucel (hydroxypropylcellulose) (HPC)
[3] = dose: 100.0 mg/kg/injection, schedule: Q01DX001 (ip), vehicle: saline
[4] = dose: 200.0 mg/kg/injection, schedule: Q01DX001 (ip), vehicle: saline
[5] = dose: 400.0 mg/kg/injection, schedule: Q01DX001 (ip), vehicle: saline
[6] = dose: 100.0 mg/kg/injection, schedule: Q01DX001 (ip), vehicle: carboxymethylcellulose (CMC)
[7] = dose: 200.0 mg/kg/injection, schedule: Q01DX001 (ip), vehicle: carboxymethylcellulose (CMC)
[8] = dose: 400.0 mg/kg/injection, schedule: Q01DX001 (ip), vehicle: carboxymethylcellulose (CMC)
[9] = dose: 100.0 mg/kg/injection, schedule: Q01DX009 (ip), vehicle: saline with Tween-80
[10] = dose: 100.0 mg/kg/injection, schedule: Q04DX003 (ip), vehicle: saline with Tween-80
[11] = dose: 200.0 mg/kg/injection, schedule: Q01DX009 (ip), vehicle: saline with Tween-80
[12] = dose: 200.0 mg/kg/injection, schedule: Q04DX003 (ip), vehicle: saline with Tween-80
[13] = dose: 400.0 mg/kg/injection, schedule: Q01DX009 (ip), vehicle: saline with Tween-80
[14] = dose: 400.0 mg/kg/injection, schedule: Q04DX003 (ip), vehicle: saline with Tween-80
[15] = dose: 100.0 mg/kg/injection, schedule: Q04DX003 (ip), vehicle: other
[16] = dose: 200.0 mg/kg/injection, schedule: Q04DX003 (ip), vehicle: other
[17] = dose: 400.0 mg/kg/injection, schedule: Q04DX003 (ip), vehicle: other
[18] = dose: 100.0 mg/kg/injection, schedule: Q04DX003 (ip), vehicle: saline

Q: With `Cc1cc(N(CCOS(C)(=O)=O)CCOS(C)(=O)=O)ccc1C=Nc1ccc(-c2csc(COc3ccccc3)n2)cc1` as the compound, how does the T/C (dose: 66.0 mg/kg/injection, schedule: Q04DX003 (ip), vehicle: Klucel (hydroxypropylcellulose) (HPC)) read?
A: Its T/C is 116 % of control.

Q: And the T/C [1]?
A: The T/C was 98 % of control.

Q: What about the T/C (dose: 125.0 mg/kg/injection, schedule: Q04DX003 (ip), vehicle: Klucel (hydroxypropylcellulose) (HPC)) of the same compound?
A: Its T/C is 158 % of control.

Q: And the T/C (dose: 150.0 mg/kg/injection, schedule: Q04DX003 (ip), vehicle: Klucel (hydroxypropylcellulose) (HPC))?
A: Its T/C is 154 % of control.

Q: What about the T/C [2] of the same compound?
A: The T/C was 151 % of control.

Q: What does the source list for `c1ccc2c(c1)CCc1c-2[nH]c2c1ccc1ccccc12`?
A: T/C [3]: 91 % of control; T/C [4]: 111 % of control; T/C [5]: 94 % of control

Q: For `Nc1cc2c(cc1[N+](=O)[O-])-c1ccc([N+](=O)[O-])cc1C2=O`, which T/C (dose: 50.0 mg/kg/injection, schedule: Q01DX001 (ip), vehicle: carboxymethylcellulose (CMC)) is on record?
A: Its T/C is 98 % of control.

Q: And the T/C [6]?
A: The T/C was 113 % of control.

Q: What about the T/C [7] of the same compound?
A: Its T/C is 98 % of control.

Q: And the T/C [8]?
A: The T/C was 109 % of control.

Q: Which T/C [9] does the source give for `O=C1C(=O)N(CN2CCCCC2)c2ccccc21` here?
A: Its T/C is 98 % of control.

Q: And the T/C [10]?
A: Its T/C is 109 % of control.

Q: And the T/C [11]?
A: The T/C was 113 % of control.

Q: What about the T/C [12] of the same compound?
A: The T/C was 109 % of control.

Q: And the T/C [13]?
A: The T/C was 104 % of control.

Q: What about the T/C [14] of the same compound?
A: Its T/C is 108 % of control.

Q: Which results are given for `CCOC(=O)CNC(=O)Oc1ccc(NC(C)=O)cc1`?
A: T/C [9]: 100 % of control; T/C [11]: 95 % of control; T/C [13]: 108 % of control

Q: With `Cc1c(CO)[nH]c(=S)[nH]c1=O` as the compound, how does the T/C (dose: 50.0 mg/kg/injection, schedule: Q01DX001 (ip), vehicle: Klucel (hydroxypropylcellulose) (HPC)) read?
A: Its T/C is 103 % of control.

Q: What about the T/C (dose: 50.0 mg/kg/injection, schedule: Q04DX003 (ip), vehicle: Klucel (hydroxypropylcellulose) (HPC)) of the same compound?
A: The T/C was 100 % of control.

Q: And the T/C (dose: 100.0 mg/kg/injection, schedule: Q01DX001 (ip), vehicle: Klucel (hydroxypropylcellulose) (HPC))?
A: The T/C was 95 % of control.

Q: And the T/C [1]?
A: Its T/C is 92 % of control.

Q: What about the T/C (dose: 200.0 mg/kg/injection, schedule: Q01DX001 (ip), vehicle: Klucel (hydroxypropylcellulose) (HPC)) of the same compound?
A: The T/C was 97 % of control.

Q: And the T/C [2]?
A: Its T/C is 89 % of control.

Q: `O=[N+]([O-])c1cccc(Oc2ncccc2[N+](=O)[O-])c1` was tested. Which T/C (dose: 100.0 mg/kg/injection, schedule: Q01DX009 (ip), vehicle: Klucel (hydroxypropylcellulose) (HPC)) did it give?
A: Its T/C is 95 % of control.

Q: What about the T/C [15] of the same compound?
A: Its T/C is 105 % of control.

Q: And the T/C (dose: 200.0 mg/kg/injection, schedule: Q01DX009 (ip), vehicle: Klucel (hydroxypropylcellulose) (HPC))?
A: Its T/C is 102 % of control.

Q: And the T/C [16]?
A: Its T/C is 103 % of control.

Q: What about the T/C (dose: 400.0 mg/kg/injection, schedule: Q01DX009 (ip), vehicle: Klucel (hydroxypropylcellulose) (HPC)) of the same compound?
A: The T/C was 94 % of control.

Q: What about the T/C [17] of the same compound?
A: The T/C was 100 % of control.

Q: For `CCCCCCCCCCCC[Si](c1ccccc1)(c1ccccc1)c1ccccc1`, which T/C [15] is on record?
A: Its T/C is 94 % of control.

Q: What about the T/C [16] of the same compound?
A: Its T/C is 96 % of control.

Q: And the T/C [17]?
A: Its T/C is 90 % of control.

Q: Which T/C [10] does the source give for `CC(=O)Nc1ccccc1-c1ccc([N+](=O)[O-])cc1` here?
A: The T/C was 110 % of control.

Q: What about the T/C [12] of the same compound?
A: The T/C was 101 % of control.

Q: And the T/C [14]?
A: The T/C was 101 % of control.

Q: Which results are given for `CCOC(=O)c1c[nH]c2nc(N)ccc2c1=O`?
A: T/C (dose: 50.0 mg/kg/injection, schedule: Q01DX001 (ip), vehicle: saline): 104 % of control; T/C [3]: 106 % of control; T/C [4]: 106 % of control; T/C [5]: 101 % of control

Q: Which results are given for `CON(C)C(=O)CCN1CC1`?
A: T/C (dose: 10.0 mg/kg/injection, schedule: Q01DX009 (ip), vehicle: saline): 97 % of control; T/C (dose: 20.0 mg/kg/injection, schedule: Q01DX009 (ip), vehicle: saline): 94 % of control; T/C (dose: 20.0 mg/kg/injection, schedule: Q04DX003 (ip), vehicle: saline): 100 % of control; T/C (dose: 40.0 mg/kg/injection, schedule: Q01DX009 (ip), vehicle: saline): 97 % of control; T/C (dose: 40.0 mg/kg/injection, schedule: Q04DX003 (ip), vehicle: saline): 100 % of control; T/C (dose: 80.0 mg/kg/injection, schedule: Q04DX003 (ip), vehicle: saline): 104 % of control; T/C [18]: 94 % of control

Q: Which T/C (dose: 100.0 mg/kg/injection, schedule: Q04DX002 (ip), vehicle: saline with Tween-80) does the source give for `CC(C)=CCCC(C)CCOC(N)=O` (stereo unspecified) here?
A: Its T/C is 104 % of control.

Q: What about the T/C (dose: 200.0 mg/kg/injection, schedule: Q04DX002 (ip), vehicle: saline with Tween-80) of the same compound?
A: The T/C was 111 % of control.

Q: Which results are given for `COC(CSc1ncc2cnccn12)OC`?
A: T/C (dose: 100.0 mg/kg/injection, schedule: Q01DX009 (ip), vehicle: water): 102 % of control; T/C (dose: 100.0 mg/kg/injection, schedule: Q04DX003 (ip), vehicle: water): 103 % of control; T/C (dose: 200.0 mg/kg/injection, schedule: Q01DX009 (ip), vehicle: water): 100 % of control; T/C (dose: 200.0 mg/kg/injection, schedule: Q04DX003 (ip), vehicle: water): 106 % of control; T/C (dose: 400.0 mg/kg/injection, schedule: Q01DX009 (ip), vehicle: water): 100 % of control; T/C (dose: 400.0 mg/kg/injection, schedule: Q04DX003 (ip), vehicle: water): 108 % of control

Q: Which results are given for `NC(=O)C(=O)NO`?
A: T/C [3]: 97 % of control; T/C [4]: 106 % of control; T/C [5]: 105 % of control

Q: How did the T/C (dose: 37.5 mg/kg/injection, schedule: Q01DX009 (ip), vehicle: acetone) turn out when `CCCc1c(Cl)nc(Cl)nc1Cl` was run?
A: The T/C was 111 % of control.

Q: What about the T/C (dose: 66.0 mg/kg/injection, schedule: Q04DX003 (ip), vehicle: saline) of the same compound?
A: The T/C was 104 % of control and 105 % of control.

Q: And the T/C [6]?
A: Its T/C is 100 % of control.

Q: What about the T/C [18] of the same compound?
A: The T/C was 100 % of control and 104 % of control.

Q: What about the T/C (dose: 150.0 mg/kg/injection, schedule: Q04DX003 (ip), vehicle: saline) of the same compound?
A: The T/C was 106 % of control and 107 % of control.

Q: And the T/C [7]?
A: The T/C was 108 % of control.

Q: What about the T/C [8] of the same compound?
A: Its T/C is 96 % of control.

Q: With `CN(N)Cc1cccc(O)c1` as the compound, how does the T/C (dose: 50.0 mg/kg/injection, schedule: Q01DX009 (ip), vehicle: saline) read?
A: The T/C was 101 % of control.

Q: And the T/C (dose: 100.0 mg/kg/injection, schedule: Q01DX009 (ip), vehicle: saline)?
A: The T/C was 104 % of control.

Q: What about the T/C (dose: 200.0 mg/kg/injection, schedule: Q01DX009 (ip), vehicle: saline) of the same compound?
A: The T/C was 101 % of control.
